# Patent US20060058320A1, “[1,2,4] Triazolo[1,5-c]pyrimidine derivatives” (KYOWA HAKKO KOGYO CO., LTD., priority 2002, published 2006)
# Where a name gives a salt, the structure may show the parent alone.
# System: not given
# Assay: not given
# Conditions: not given
row,Compound,melting point
1,"Nc1nc(CNCCc2ccccn2)cc2nc(-c3ccco3)nn12 (as salt: hydrochloride) [Compound 44, 5-Amino-7-[2-(2-pyridyl)ethylaminomethyl]-2-(2-furyl)-[1,2,4]triazolo[1,5-c]pyrimidine dihydrochloride]",249.5 to 249.7 °C
2,COc1cc(CNCc2ccccc2-c2cc3nc(-c4ccco4)nn3c(N)n2)cc(OC)c1 (as salt: hydrochloride),213.5 to 214.3 °C
3,"Nc1nc(-c2cccc(CNCCc3ccccn3)c2)cc2nc(-c3ccco3)nn12 [Compound 19, 5-Amino-2-(2-furyl)-7-{3-[2-(2-pyridyl)ethylaminomethyl]-phenyl}[1,2,4]triazolo[1,5-c]pyrimidine]",159.2 to 159.4 °C
4,Nc1nc(C2=CCN(CC(F)(F)F)CC2)cc2nc(-c3ccco3)nn12,247.5 to 248.2 °C (dec.)
5,"Nc1nc(-c2ccccc2CNCCc2ccccn2)cc2nc(-c3ccco3)nn12 [Compound 4, 5-Amino-2-(2-furyl)-7-{2-[2-(2-pyridyl)ethylaminomethyl]-phenyl}[1,2,4]triazolo[1,5-c]pyrimidine]",179.2 to 180 °C
6,"CC(=O)NCCNCc1ccc(-c2cc3nc(-c4ccco4)nn3c(N)n2)cc1 (as salt: hydrochloride) [Compound 16, 7-{4-[2-(N-acetylamino)ethylaminomethyl]phenyl}-5-amino-2-(2-furyl)[1,2,4]triazolo[1,5-c]pyrimidine monohydrochloride]",238.5 to 240 °C

# More lines, now with the values ahead:
row,melting point,Compound
1,224 to 224.5 °C,"Nc1nc(-c2ccccc2C=O)cc2nc(-c3ccco3)nn12 [Compound 2, 5-Amino-7-(2-formylphenyl)-2-(2-furyl)[1,2,4]triazolo[1,5-c]pyrimidine]"
2,153.8 to 154.6 °C,"CCOCc1cc2nc(-c3ccco3)nn2c(N)n1 [Compound 24, 5-Amino-7-ethoxymethyl-2-(2-furyl) [1,2,4]triazolo[1,5-c]pyrimidine]"
3,198.5 to 198.8 °C,"Nc1nc(C(=O)NCCCn2ccnc2)cc2nc(-c3ccco3)nn12 [Compound 90, 5-Amino-2-(2-furyl)[1,2,4]triazolo[1,5-c]pyrimidine-7-carboxylic acid [3-(1-imidazolyl)propyl]amide]"
4,250.2 to 250.4 °C,Nc1nc(-c2ccco2)cc2nc(-c3ccco3)nn12
5,230.8 to 231.3 °C,"CC(=O)NCCNCc1ccccc1-c1cc2nc(-c3ccco3)nn2c(N)n1 (as salt: hydrochloride) [Compound 7, 5-Amino-7-{2-[2-(N-acetylamino)ethylaminomethyl]phenyl}-2-(2-furyl)[1,2,4]triazolo[1,5-c]pyrimidine monohydrochloride]"

# Target: T1, adenosine A2A receptor (Rattus norvegicus, UniProt P30543)
# T1 construct: from tissue; host or cells: rat corpus striatum membrane preparation
# Assay: Adenosine A2A receptor binding test (3H-CGS 21680 binding)
# Conditions: read-out: A2A Receptor inhibition rate (%) at 10^−7 mol/L
# Description: The test was carried out according to the method of Bruns et al. [Molecular Pharmacology, vol. 29, p.
# Rat corpus striatum was suspended in an ice-cold 50 mmol/L tris(hydroxymethyl)aminomethane hydrochloride (referred to as “Tris HCl” hereinafter) buffer (pH 7.7) using a Polytron homogenizer (produced by Kinematica Co.). The suspension was centrifuged (50,000×g, 10 minutes), and the resulting precipitate was again suspended in the same amount of a 50 mmol/L Tris HCl buffer, followed by centrifugation under the same conditions. The resulting finalprecipitate was again suspended in a 50 mmol/L-Tris HCl buffer [containing 10 mmol/L of magnesium chloride and 0.02 unit/mg tissue of adenosine deaminase (produced by Sigma Co.)] so that the tissue concentration was 5 mg (wet weight)/mL.
# The radioactivity on the filter was determined with a liquid scintillation counter (produced by Packard Instrument Co.).
# In the equation, X represents Amount of binding in the presence of a medicament, Y represents Amount of nonspecific binding, and Z represents Amount of total binding.
# T1 sequence (P30543 whole entry): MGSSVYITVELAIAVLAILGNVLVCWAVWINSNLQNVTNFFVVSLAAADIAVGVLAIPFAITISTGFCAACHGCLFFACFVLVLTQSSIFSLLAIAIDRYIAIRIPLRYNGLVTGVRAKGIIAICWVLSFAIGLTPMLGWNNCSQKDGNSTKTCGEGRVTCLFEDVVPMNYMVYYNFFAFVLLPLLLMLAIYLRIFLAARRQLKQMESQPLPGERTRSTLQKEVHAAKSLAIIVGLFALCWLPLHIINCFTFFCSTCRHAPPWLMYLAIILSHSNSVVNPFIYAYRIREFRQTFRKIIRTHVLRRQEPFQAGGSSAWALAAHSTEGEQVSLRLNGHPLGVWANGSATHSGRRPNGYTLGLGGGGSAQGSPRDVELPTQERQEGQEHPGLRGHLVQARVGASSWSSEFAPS
row,Compound,inhibition at 0.1 µM [%]
1,"CC1CCCN(C(=O)c2cc3nc(-c4ccco4)nn3c(N)n2)C1 (stereo not drawn) [Compound 145, 5-Amino-2-(2-furyl)[1,2,4]triazolo[1,5-c]pyrimidin-7-yl 3-methylpiperidino ketone]",60

# Same assay, conditions: test compound 10^−7 mol/L; 3H-CGS 21680 binding, rat corpus striatum
row,Compound,A2A Receptor inhibition rate (%) at 10^−7 mol/L [%]
1,"Nc1nc(C(=O)N2CCCC2)cc2nc(-c3ccco3)nn12 [Compound 148, 5-Amino-2-(2-furyl)[1,2,4]triazolo[1,5-c]pyrimidin-7-yl pyrrolidinyl ketone]",75
2,"5-Amino-2-(2-furyl)-7-(2-phenylthienyl)[1,2,4]triazolo[1,5-c]pyrimidine [Compound 65]",96

# Same assay, conditions: test compound 10^−7 mol/L; 3H-CGS 21680 binding, rat corpus striatum; read-out: A2A Receptor inhibition rate (%) at 10^−7 mol/L
row,Compound,inhibition at 0.1 µM [%]
1,"CC(=O)NCCNCc1ccc(-c2cc3nc(-c4ccco4)nn3c(N)n2)cc1 [Compound 16, 7-{4-[2-(N-acetylamino)ethylaminomethyl]phenyl}-5-amino-2-(2-furyl)[1,2,4]triazolo[1,5-c]pyrimidine monohydrochloride]",36
2,"COc1cc(CNCc2ccc(-c3cc4nc(-c5ccco5)nn4c(N)n3)cc2)cc(OC)c1 [Compound 17, 5-Amino-7-[4-(3,5-dimethoxybenzylaminomethyl)phenyl]-2-(2-furyl)[1,2,4]triazolo[1,5-c]pyrimidine monohydrochloride]",70
3,"COC(C)(C)c1cc2nc(-c3ccco3)nn2c(N)n1 [Compound 25, 5-Amino-2-(2-furyl)-7-(1-methyl-1-methoxyethyl)[1,2,4]-triazolo[1,5-c]pyrimidine]",47
4,"Nc1nc(/C=C/CNCC2CC2)cc2nc(-c3ccco3)nn12 [Compound 68, 5-Amino-7-[3-(cyclopropylmethylamino)-(E)-propan-1-en-1-yl]-2-(2-furyl)[1,2,4]triazolo[1,5-c]pyrimidine]",96
5,"COc1ccc(CNCc2cc3nc(-c4ccco4)nn3c(N)n2)cc1OC [Compound 42, 5-Amino-7-(3,4-dimethoxybenzylaminomethyl)-2-(2-furyl)-[1,2,4]triazolo[1,5-c]pyrimidine dihydrochloride]",62
6,"Nc1nc(CN2CCN(CC3CC3)CC2)cc2nc(-c3ccco3)nn12 [Compound 50, 5-Amino-7-[4-(cyclopropylmethyl)piperazin-1-ylmethyl]-2-(2-furyl)[1,2,4]triazolo[1,5-c]pyrimidine dihydrochloride]",65
7,"COc1cc(CNCc2cc3nc(-c4ccco4)nn3c(N)n2)cc(OC)c1 [Compound 43, 5-Amino-7-[(3,5-dimethoxybenzylamino)methyl]-2-(2-furyl)-[1,2,4]triazolo[1,5-c]pyrimidine dihydrochloride]",60

# The remaining lines, values ahead:
row,inhibition at 0.1 µM [%],Compound
1,61,"CN(Cc1cccc(F)c1)C(=O)c1cc2nc(-c3ccco3)nn2c(N)n1 [Compound 120, 5-Amino-2-(2-furyl)[1,2,4]triazolo[1,5-c]pyrimidine-7-carboxylic acid [N-(3-fluorobenzyl)-N-methyl]amide monohydrochloride]"
2,59,"CN(Cc1cccnc1Cl)C(=O)c1cc2nc(-c3ccco3)nn2c(N)n1 [Compound 128, 5-Amino-2-(2-furyl)[1,2,4]triazolo[1,5-c]pyrimidine-7-carboxylic acid [N-(2-chloropyridin-3-ylmethyl)-N-methyl]-amide]"
3,56,"Nc1nc(CNCCc2ccccn2)cc2nc(-c3ccco3)nn12 [Compound 44, 5-Amino-7-[2-(2-pyridyl)ethylaminomethyl]-2-(2-furyl)-[1,2,4]triazolo[1,5-c]pyrimidine dihydrochloride]"
4,71,"Nc1nc(C(=O)N2CCCCC2)cc2nc(-c3ccco3)nn12 [Compound 142, 5-Amino-2-(2-furyl)[1,2,4]triazolo[1,5-c]pyrimidin-7-yl piperidino ketone]"
5,54,"N#CCCN(Cc1cccnc1)C(=O)c1cc2nc(-c3ccco3)nn2c(N)n1 [Compound 103, 5-Amino-2-(2-furyl)[1,2,4]triazolo[1,5-c]pyrimidine-7-carboxylic acid [N-(2-cyanoethyl)-N-(3-pyridylmethyl)]amide]"
6,64,"CC(=O)NCCNCc1ccccc1-c1cc2nc(-c3ccco3)nn2c(N)n1 [Compound 7, 5-Amino-7-{2-[2-(N-acetylamino)ethylaminomethyl]phenyl}-2-(2-furyl)[1,2,4]triazolo[1,5-c]pyrimidine monohydrochloride]"
7,60,"Cc1ncccc1CN(C)C(=O)c1cc2nc(-c3ccco3)nn2c(N)n1 [Compound 134, 5-Amino-2-(2-furyl)[1,2,4]triazolo[1,5-c]pyrimidine-7-carboxylic acid [N-methyl-N-(2-methylpyridin-3-ylmethyl)]-amide]"
8,83,"CN(Cc1ccco1)C(=O)c1cc2nc(-c3ccco3)nn2c(N)n1 [Compound 101, 5-Amino-2-(2-furyl)[1,2,4]triazolo[1,5-c]pyrimidine-7-carboxylic acid [N-(2-furylmethyl)-N-methyl]amide]"
9,69,"CCN(Cc1ccccc1)C(=O)c1cc2nc(-c3ccco3)nn2c(N)n1 [Compound 99, 5-Amino-2-(2-furyl)[1,2,4]triazolo[1,5-c]pyrimidine-7-carboxylic acid (N-benzyl-N-ethyl)amide]"
